Reference: PubChem BioAssay (NCI)
Where “and” joins values, the source holds several entries; their conditions need not be identical. Identical values can stand only once.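 These data come from cells grown in 96-well plates and exposed to compound for 48 hours at five concentrations. Here, GI50 denotes the concentration required for 50% inhibition of growth. TGI denotes the concentration required for complete inhibition of growth.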

Tests used:
Test in all cases: DTP human tumour cell line panel, 48 h
[1] = test system: CAKI-1 renal
[2] = test system: M14 melanoma
[3] = test system: NCI-H23 lung
[4] = test system: OVCAR-3 ovarian
[5] = test system: SNB-19 CNS
[6] = test system: TK-10 renal
[7] = test system: BT-549 breast
[8] = test system: MDA-MB-231 breast
[9] = test system: MDA-MB-435
[10] = test system: NCI/ADR-RES ovarian

Compound: OCCN(CCO)c1ncnc2c1sc(=S)n2-c1ccccc1
- TGI [1]: > 100 µM
- TGI [2]: > 100 µM
- TGI [3]: > 100 µM
- TGI [4]: > 100 µM
- TGI [5]: > 100 µM
- TGI [6]: > 100 µM

Compound: O=c1/c(=C/c2ccc3c(c2)OCO3)sc2nnc(Cc3ccccc3)n12
- TGI [1]: > 100 µM
- TGI [2]: > 100 µM
- TGI [3]: > 100 µM
- TGI [4]: > 100 µM
- TGI [5]: > 100 µM
- TGI [6]: > 100 µM

Compound: CC1(C)Oc2ccccc2N2O[C@@H]3C(=O)N(c4ccccc4)C(=O)[C@@H]3C21c1ccccc1 (some centres not stated)
- TGI [1]: 60.8 µM
- TGI [2]: 46.4 µM
- TGI [3]: > 100 µM
- TGI [4]: 47 µM
- TGI [5]: 38.1 µM
- TGI [6]: 33.1 µM

Compound: Cc1cc2c(-c3nc4ccccn4c3NC34CC5CC(CC(C5)C3)C4)c(O)c(O)cc2c(O)c1-c1c(C)cc2c(-c3nc4ccccn4c3NC34CC5CC(CC(C5)C3)C4)c(O)c(O)cc2c1O
- GI50 [7]: 105 nM
- TGI [7]: 5.96 µM
- GI50 [8]: 763 nM
- TGI [8]: 11.4 µM
- GI50 [9]: 552 nM
- TGI [9]: > 25 µM
- GI50 [3]: 137 nM
- TGI [3]: 3.09 µM
- GI50 [10]: 1050 nM
- TGI [10]: > 25 µM
- GI50 [4]: 617 nM
- TGI [4]: 8.3 µM
- GI50 [5]: 214 nM
- TGI [5]: 3.99 µM
- GI50 [6]: 794 nM
- TGI [6]: > 25 µM

Compound: Cc1cc(N(CCC#N)CCC#N)ccc1/C=C/C(=O)Nc1ccccc1Cl
- TGI [1]: > 100 µM
- TGI [2]: > 100 µM
- TGI [3]: > 100 µM
- TGI [4]: > 100 µM
- TGI [5]: > 100 µM
- TGI [6]: > 100 µM

Compound: Cc1nnc(N=Nc2c(O)[nH]c3ccccc23)[nH]c1=O
- TGI [7]: > 100 µM
- TGI [2]: > 100 µM
- TGI [8]: > 100 µM
- TGI [9]: > 100 µM
- TGI [10]: > 100 µM
- TGI [4]: > 100 µM
- TGI [5]: > 100 µM
- TGI [6]: > 100 µM

Compound: CCOc1ccccc1NC(=O)CCC(=O)NN
- TGI [1]: > 100 µM
- TGI [2]: > 100 µM
- TGI [3]: > 100 µM
- TGI [4]: > 100 µM
- TGI [5]: > 100 µM
- TGI [6]: > 100 µM

Compound: NCCn1c2c(c3ccccc3c1=O)C(=O)c1ccccc1-2
- GI50 [7]: 2420 nM
- TGI [7]: 10.1 µM
- GI50 [1]: 129 nM
- TGI [1]: 0.887 µM
- GI50 [8]: 431 nM
- TGI [8]: 1.49 µM
- GI50 [9]: 897 nM
- TGI [9]: 2.51 µM
- GI50 [3]: 237 nM
- TGI [3]: 1.86 µM
- GI50 [10]: 647 nM
- TGI [10]: 3.3 µM
- GI50 [4]: 681 nM
- TGI [4]: 2.53 µM
- GI50 [5]: 251 nM
- TGI [5]: 2.09 µM
- GI50 [6]: 778 nM
- TGI [6]: 3.64 µM

Compound: CN1C(=O)CC2(C)c3cc(C=O)ccc3N(C)C12 (configuration not stated)
- TGI [2]: > 100 µM
- TGI [3]: > 100 µM
- TGI [4]: > 100 µM
- TGI [5]: > 100 µM
- TGI [6]: > 100 µM

Compound: CCOC(=O)c1cc(C(=O)O)c(=O)n2c1[nH]c1ccccc12
- TGI [1]: > 100 µM
- TGI [2]: > 100 µM
- TGI [3]: > 100 µM
- TGI [4]: > 100 µM
- TGI [5]: > 100 µM
- TGI [6]: > 100 µM

Compound: Cc1cc(C)c2nccc(NCCCN(C)C)c2c1[N+](=O)[O-]
- TGI [7]: > 100 µM
- TGI [1]: > 100 µM
- TGI [2]: 33.7 µM
- TGI [8]: > 100 µM
- TGI [9]: > 100 µM
- TGI [3]: 37.2 µM
- TGI [4]: > 100 µM
- TGI [5]: > 100 µM
- TGI [6]: > 100 µM

Compound: COc1cc2c(c(OC)c1OC)-c1ccc(SC)c(=O)cc1[C@@H](NC(=O)c1ccc(F)cc1)CC2
- GI50 [2]: < 10 nM
- TGI [2]: 2.69 µM
- GI50 [3]: < 10 nM
- TGI [3]: < 0.01 µM
- GI50 [4]: < 10 nM
- TGI [4]: 0.0378 µM and < 0.01 µM
- GI50 [5]: 28.7 nM and < 10 nM
- GI50 [6]: < 10 nM
- TGI [6]: 35.5 µM

Compound: C=CCN(N=O)C(=O)ON1C(=O)CCC1=O
- TGI [2]: > 100 µM
- TGI [3]: > 100 µM
- TGI [4]: > 100 µM
- TGI [5]: > 100 µM
- TGI [6]: > 100 µM

Compound: c1cc2ccc1C1NCCCN1CCN1CCCNC1c1ccc(cc1)C1NCCCN1CCN1CCCNC21 (configuration not stated)
- TGI [1]: > 100 µM
- TGI [2]: > 100 µM
- TGI [3]: > 100 µM
- TGI [4]: > 100 µM
- TGI [5]: > 100 µM
- TGI [6]: > 100 µM

Compound: COc1ccc(-c2nc(/C=N/Nc3cc(C)nc4ccc(Br)cc34)c(C)o2)cc1
- GI50 [7]: 1670 nM
- TGI [7]: 3.11 µM
- GI50 [1]: 1620 nM
- TGI [1]: 2.98 µM
- GI50 [2]: 1780 nM
- TGI [2]: 3.39 µM
- GI50 [8]: 1930 nM
- TGI [8]: 3.72 µM
- GI50 [9]: 1680 nM
- TGI [9]: 3.1 µM
- GI50 [10]: 2030 nM
- TGI [10]: 4.48 µM
- GI50 [4]: 1840 nM
- TGI [4]: 3.41 µM
- GI50 [5]: 1950 nM
- TGI [5]: 3.73 µM
- GI50 [6]: 1970 nM
- TGI [6]: 3.45 µM

Compound: O=C(/C(=N/Nc1cn[nH]c(=O)c1Cl)c1ccccc1)c1ccccc1
- TGI [1]: 93.1 µM
- TGI [2]: > 100 µM
- TGI [8]: 87.3 µM
- TGI [9]: 32.6 µM
- TGI [3]: 66.6 µM
- TGI [10]: 59.9 µM
- TGI [4]: 56.2 µM
- TGI [5]: > 100 µM
- TGI [6]: > 100 µM

Compound: C/C(=N\O)[C@H]1CC[C@@]2(C)[C@@H]3CC[C@H]4C(C)(C)/C(=N/O)CC[C@@]45CC35CC[C@]12C (some centres not stated)
- GI50 [7]: 2650 nM
- TGI [7]: 9.59 µM
- GI50 [2]: 3200 nM
- TGI [2]: 8.11 µM
- GI50 [8]: 7460 nM
- TGI [8]: > 16.7 µM
- GI50 [3]: 4960 nM
- TGI [3]: > 16.7 µM
- GI50 [10]: 2760 nM
- TGI [10]: 7.93 µM
- GI50 [5]: 8210 nM
- TGI [5]: > 16.7 µM
- GI50 [6]: 8170 nM
- TGI [6]: > 16.7 µM

Compound: CCC1(Cl)C(=O)NC(=O)N(C2CC(O)C(CO)O2)C1N=[N+]=[N-] (configuration not stated)
- TGI [1]: > 100 µM
- TGI [2]: > 100 µM
- TGI [3]: > 100 µM
- TGI [4]: > 100 µM
- TGI [5]: > 100 µM
- TGI [6]: > 100 µM

Compound: C/C(N=NC(=S)N1CCCCCC1)=C1\C=CC=CN1O
- TGI [7]: > 100 µM
- TGI [1]: > 89.3 µM
- TGI [2]: 38.8 µM
- TGI [8]: > 100 µM
- TGI [9]: > 100 µM
- TGI [3]: > 56.2 µM
- TGI [4]: 11.8 µM
- TGI [5]: > 100 µM
- TGI [6]: > 100 µM

Compound: O=C1Nc2ccc(Br)cc2C1=Nc1ccc(Cl)cc1
- TGI [1]: > 100 µM
- TGI [2]: 72.2 µM
- TGI [8]: 45.9 µM
- TGI [9]: 20.6 µM
- TGI [3]: > 100 µM
- TGI [10]: 62.3 µM
- TGI [4]: 40 µM
- TGI [5]: 97 µM
- TGI [6]: 51.4 µM

Compound: COC(=O)C1=C(C(=O)OC)C(C(=O)OC)C(C(=O)OC)C(C(=O)OC)(C(=O)OC)C(C(=O)OC)=C1C(=O)OC (configuration not stated)
- TGI [7]: 32.1 µM
- TGI [1]: 36.7 µM
- TGI [2]: 29.8 µM
- TGI [8]: 40.1 µM
- TGI [9]: 37.5 µM
- TGI [3]: 35.8 µM
- TGI [4]: 28.9 µM
- TGI [5]: 33 µM
- TGI [6]: 29 µM

Compound: C=C1C(=O)C23CC1CCC2C12CO[C@@]3(O)[C@@H](O)C1C(C)(C)C=CC2=O (some centres not stated)
- TGI [1]: 4.13 µM
- TGI [2]: 6.1 µM
- TGI [8]: 12 µM
- TGI [9]: 11.1 µM
- GI50 [3]: 2900 nM
- TGI [3]: 1.42 µM and 7.88 µM
- TGI [10]: 60.4 µM
- TGI [4]: 2.75 µM
- GI50 [5]: 20400 nM
- GI50 [6]: 4510 nM
- TGI [6]: 1.55 µM and 11.2 µM
